Test results taken from the Kinase Knowledgebase extract (Sharma et al. 2016).

target: CDK2 (UniProt P24941); assay: Enzyme Assay; settings: concentration not given here

`CCOc1cccc(NC(=O)c2ccc(Nc3nc(N)c(C(=O)c4c(F)cccc4F)s3)cc2)c1` and `Cc1cccc(NC(=O)c2ccc(Nc3nc(N)c(C(=O)c4c(F)cccc4F)s3)cc2)c1` are the same in inhibition: -7% for the first, -7% for the second.

Compared with `COc1ccc(CCN(C)C(=O)c2ccc(Nc3nc(N)c(C(=O)c4c(F)cccc4F)s3)cc2)cc1OC`, `COc1ccc(CNC(=O)c2ccc(Nc3nc(N)c(C(=O)c4c(F)cccc4F)s3)cc2)cc1OC` is higher in inhibition: -3% for the first, -2% for the second.

Going from `Cc1cccc(CN(C)C(=O)c2ccc(Nc3nc(N)c(C(=O)c4c(F)cccc4F)s3)cc2)n1` to `CN(Cc1ccco1)C(=O)c1ccc(Nc2nc(N)c(C(=O)c3c(F)cccc3F)s2)cc1`, the inhibition falls from -1% to -3%.

Compared with `CN(C)CCN1CCN(C(=O)c2ccc(Nc3nc(N)c(C(=O)c4c(F)cccc4F)s3)cc2)CC1`, `Nc1nc(Nc2ccc(C(=O)N3CCN(CCO)CC3)cc2)sc1C(=O)c1c(F)cccc1F` is lower in inhibition: -17% for the first, -43% for the second.

First: Cc1cc(NC(=O)c2ccc(Nc3nc(N)c(C(=O)c4c(F)cccc4F)s3)cc2)ccc1C(C)C
Second: Cc1ccc(NC(=O)c2ccc(Nc3nc(N)c(C(=O)c4c(F)cccc4F)s3)cc2)cc1Cl
The inhibition of the first is lower: -5% for the first, -1% for the second.

First: Cc1cccc(N2CCN(C(=O)c3ccc(Nc4nc(N)c(C(=O)c5c(F)cccc5F)s4)cc3)CC2C)c1 (stereo unspecified)
Second: CN1CCN(C(=O)c2ccc(Nc3nc(N)c(C(=O)c4c(F)cccc4F)s3)cc2)CC1
The inhibition of the first is lower: -23% for the first, -9% for the second.

Going from `Nc1nc(Nc2ccc(C(=O)Nc3ccc4ncsc4c3)cc2)sc1C(=O)c1c(F)cccc1F` to `CC(C)c1cccc(NC(=O)c2ccc(Nc3nc(N)c(C(=O)c4c(F)cccc4F)s3)cc2)c1`, the inhibition falls from 13% to -12%.

Compared with `CC(=O)N[C@@H]1CCN(C(=O)c2ccc(Nc3nc(N)c(C(=O)c4c(F)cccc4F)s3)cc2)C1`, `Nc1nc(Nc2ccc(C(=O)N3CCC(CO)CC3)cc2)sc1C(=O)c1c(F)cccc1F` is lower in inhibition: -7% for the first, -14% for the second.

First: N#CCCSc1ccccc1NC(=O)c1ccc(Nc2nc(N)c(C(=O)c3c(F)cccc3F)s2)cc1
Second: Nc1nc(Nc2ccc(C(=O)NCCc3ccccc3)cc2)sc1C(=O)c1c(F)cccc1F
The inhibition of the first is higher: -14% for the first, -19% for the second.

Compared with `C=CCN(C)C(=O)c1ccc(Nc2nc(N)c(C(=O)c3c(F)cccc3F)s2)cc1`, `CCN(C)C(=O)c1ccc(Nc2nc(N)c(C(=O)c3c(F)cccc3F)s2)cc1` is lower in inhibition: -6% for the first, -12% for the second.

Compared with `CCCCN(CCC#N)C(=O)c1ccc(Nc2nc(N)c(C(=O)c3c(F)cccc3F)s2)cc1`, `CCCCN(CCCC)C(=O)c1ccc(Nc2nc(N)c(C(=O)c3c(F)cccc3F)s2)cc1` is lower in inhibition: 4% for the first, -7% for the second.

Going from `COCC(C)NC(=O)c1ccc(Nc2nc(N)c(C(=O)c3c(F)cccc3F)s2)cc1` (stereo unspecified) to `Nc1nc(Nc2ccc(C(=O)NCC3CC3)cc2)sc1C(=O)c1c(F)cccc1F`, the inhibition rises from -2% to 0%.

Going from `CSCC[C@@H](CO)NC(=O)c1ccc(Nc2nc(N)c(C(=O)c3c(F)cccc3F)s2)cc1` to `Nc1nc(Nc2ccc(C(=O)NCCOCCO)cc2)sc1C(=O)c1c(F)cccc1F`, the inhibition falls from -5% to -9%.

Going from `C#CCCN(C)C(=O)c1ccc(Nc2nc(N)c(C(=O)c3c(F)cccc3F)s2)cc1` to `C=C(C)CN(C)C(=O)c1ccc(Nc2nc(N)c(C(=O)c3c(F)cccc3F)s2)cc1`, the inhibition falls from 0% to -2%.

Going from `Cc1ccc(CCNC(=O)c2ccc(Nc3nc(N)c(C(=O)c4c(F)cccc4F)s3)cc2)cc1` to `Cc1ccc(O)c(NC(=O)c2ccc(Nc3nc(N)c(C(=O)c4c(F)cccc4F)s3)cc2)c1`, the inhibition falls from 14% to -6%.

First: CN(Cc1ccccc1Cl)C(=O)c1ccc(Nc2nc(N)c(C(=O)c3c(F)cccc3F)s2)cc1
Second: CN(CC(O)CO)C(=O)c1ccc(Nc2nc(N)c(C(=O)c3c(F)cccc3F)s2)cc1 (stereo unspecified)
The inhibition of the first is lower: -30% for the first, 0% for the second.

Going from `CCN(CC)CCN1CCN(C(=O)c2ccc(Nc3nc(N)c(C(=O)c4c(F)cccc4F)s3)cc2)CC1` to `Nc1nc(Nc2ccc(C(=O)N3CCCC3)cc2)sc1C(=O)c1c(F)cccc1F`, the inhibition falls from -10% to -15%.

First: CCOC(=O)/C=C/c1ccc(Nc2nc(N)c(C(=O)c3c(F)cccc3F)s2)cc1
Second: CN(C)CCCCNC(=O)c1ccc(Nc2nc(N)c(C(=O)c3c(F)cccc3F)s2)cc1
The inhibition of the first is higher: -3% for the first, -4% for the second.

Going from `CC(=O)Nc1ccccc1C(=O)c1sc(Nc2ccc(C(=O)NC[C@@H]3CCCN3C)cc2)nc1N` to `C[C@@H](NC(=O)c1ccc(Nc2nc(N)c(C(=O)c3c(F)cccc3F)s2)cc1)C1CCCCC1`, the inhibition falls from 0% to -18%.

First: CSc1ccc(NC(=O)c2ccc(Nc3nc(N)c(C(=O)c4c(F)cccc4F)s3)cc2)cc1
Second: Nc1nc(Nc2ccc(C(=O)NCCCCCO)cc2)sc1C(=O)c1c(F)cccc1F
The inhibition of the first is lower: -25% for the first, -4% for the second.

Compound `N#CCCN(Cc1cccnc1)C(=O)c1ccc(Nc2nc(N)c(C(=O)c3c(F)cccc3F)s2)cc1` has an inhibition of -2%.
